According to patent publication US20240279215A1 (Cytokinetics, Incorporated, priority 2022, published 2024):

Target: human NAMPT (Homo sapiens (Human), UniProt P43490)
Assay: NMN fluorescence biochemical assay (human recombinant NAMPT enzyme assay)
Protocol: Compounds described herein were assayed for their ability to stimulate the synthesis of nicotinamide mononucleotide (NMN) by the enzyme NAMPT. The human recombinant enzyme assay measures the activation of the enzyme activity by compounds using recombinant enzyme and substrates in a buffered cell-free system. The assay conditions closely mimic cellular environments. Dose responses were measured using an assay to detect the formation of nicotinamide mono-nucleotide. All experiments were performed in the 384-well format. Generally, 0.5 μL of DMSO containing varying concentrations of the test compound was mixed with 10 μL of the enzyme reagent solution. Enzyme reactions were initiated with the addition of […] containing the substrates. The final assay conditions were as follows: 6 nM human NAMPT, 2.5 mM ATP, 20 μM PRPP and 150 μM nicotinamide in 50 mM HEPES, pH 7.2, 1 mM DTT, 1 mM CHAPS 50 mM NaCl, 100 mM MgCl2. Following an incubation of 60 min at ambient temperature, 10 μL of 20% acetophenone in DMSO was added, followed by 10 μL of 2 M KOH and 40 μL of formic acid. The plates were read for fluorescence (Excitation/Emission=355 nm/460 nm) using an EnVision plate reader after 40 mins of incubation at ambient temperature.

human NAMPT, sequence (P43490 whole entry): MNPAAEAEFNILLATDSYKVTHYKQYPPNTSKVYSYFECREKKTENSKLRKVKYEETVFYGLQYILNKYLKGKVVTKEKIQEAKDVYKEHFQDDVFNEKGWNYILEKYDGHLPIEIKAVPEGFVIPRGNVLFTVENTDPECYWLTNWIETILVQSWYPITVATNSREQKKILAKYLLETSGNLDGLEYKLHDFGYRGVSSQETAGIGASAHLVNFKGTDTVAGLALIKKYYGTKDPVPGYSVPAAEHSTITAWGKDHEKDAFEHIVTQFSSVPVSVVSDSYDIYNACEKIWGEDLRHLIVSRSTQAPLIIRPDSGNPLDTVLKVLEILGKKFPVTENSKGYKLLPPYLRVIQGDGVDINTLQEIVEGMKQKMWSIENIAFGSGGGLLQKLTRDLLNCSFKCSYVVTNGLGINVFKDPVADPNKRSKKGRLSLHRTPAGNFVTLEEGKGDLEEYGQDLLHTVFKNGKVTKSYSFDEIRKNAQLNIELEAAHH

Row | AC1.4 Human [µM] | EC50 [µM] | Compound
1 | 0.99 | 4.06 | O=C(Nc1ccc(CNC(=O)c2ccncc2)cc1)OCc1ccc(Cl)cc1 [Compound 126, (4-chlorophenyl)methyl N-{4-[(pyridin-4-ylformamido)methyl]phenyl}carbamate]
2 | 0.15 | 10.2 | CN(C)S(=O)(=O)N1CCC[C@H](c2ccc(NC(=O)OCc3cnco3)cc2)C1 [Compound 366, oxazol-5-ylmethyl (R)-(4-(1-(N,N-dimethylsulfamoyl)piperidin-3-yl)phenyl)carbamate]
3 | 0.22 | 6.45 | COC(=O)N1CCC(Cc2ccc(NC(=O)OCc3cnco3)cc2)CC12CC2 (centres unmarked) [Compound 443, methyl 7-(4-(((oxazol-5-ylmethoxy)carbonyl)amino)benzyl)-4-azaspiro[2.5]octane-4-carboxylate]
4 | 0.79 | 51.2 | O=C(Nc1ccc(Cc2ccncc2)cc1)OCc1cn[nH]c1 [Compound 99, (1H-pyrazol-4-yl)methyl (4-(pyridin-4-ylmethyl)phenyl)carbamate]
5 | 0.16 | 4.36 | CCS(=O)(=O)N1CCC2(CC(Cc3ccc(NC(=O)OCc4cnco4)cc3F)C2)C1 (centres unmarked) [Compound 369, oxazol-5-ylmethyl (3-fluoro-4-((6-(ethylsulfonyl)-6-azaspiro[3.4]octan-2-yl)methyl)phenyl)carbamate]
6 | 0.98 | 5.01 | CC1(C)CCN(Cc2ccc(NC(=O)OCc3ccc(Cl)cc3)cc2)C1=O [Compound 123, (4-chlorophenyl)methyl N-{4-[(3,3-dimethyl-2-oxopyrrolidin-1-yl)methyl]phenyl}carbamate]
7 | 0.65 | 1.67 | COCCn1nccc1C(=O)N(C)Cc1ccc(NC(=O)OCc2ccc(Cl)cc2)cc1 [Compound 77, (4-chlorophenyl)methyl N-[4-({1-[2-(2-methoxyethyl)pyrazol-3-yl]-N-methylformamido}methyl)phenyl]carbamate]
8 | 2.70 | 31.2 | O=C(Nc1ccc(CC(=O)N2CCCC[C@H]2CO)cc1)OCc1ccc(Cl)cc1 [Compound 257, (4-chlorophenyl)methyl N-(4-{2-[(2S)-2-(hydroxymethyl)piperidin-1-yl]-2-oxoethyl}phenyl)carbamate]
9 | 1.19 | 8.23 | CC1CCN(C(=O)N[C@@H](C)c2ccc(NC(=O)OCc3ccc(Cl)cc3)cc2)CC1 [Compound 145, 4-chlorobenzyl (S)-(4-(1-(4-methylpiperidine-1-carboxamido)ethyl)phenyl)carbamate]
10 | 14.47 | 35.9 | COCCN1CCC(c2ccc(NC(=O)OCc3cnco3)cc2)CC1 [Compound 348, 1,3-oxazol-5-ylmethyl N-{4-[1-(2-methoxyethyl)piperidin-4-yl]phenyl}carbamate]
11 | 0.15 | 7.47 | CC(C)C(=O)N1CC2(CC(Cc3ccc(NC(=O)OCc4cnco4)cc3F)C2)C1 [Compound 403, oxazol-5-ylmethyl (3-fluoro-4-((2-isobutyryl-2-azaspiro[3.3]heptan-6-yl)methyl)phenyl)carbamate]
12 | 4.62 | 14.3 | CC(O)(c1ccncc1)c1ccc(NC(=O)OCc2cnco2)cc1 (centres unmarked) [Compound 296, oxazol-5-ylmethyl (4-(1-hydroxy-1-(pyridin-4-yl)ethyl)phenyl)carbamate]
13 | 2.19 | 3.38 | CC(C)c1ccc(C(=O)NCc2ccc(NC(=O)OCc3ccc(Cl)cc3)cc2)cn1 [Compound 234, (4-chlorophenyl)methyl N-(4-{[(6-isopropylpyridin-3-yl)formamido]methyl}phenyl)carbamate]
14 | 6.19 | 32.4 | O=C(Nc1ccc(CC(=O)N2CC[C@@H](O)C2)cc1)OCc1ccc(Cl)cc1 [Compound 317, (4-chlorophenyl)methyl N-(4-{2-[(3R)-3-hydroxypyrrolidin-1-yl]-2-oxoethyl}phenyl)carbamate]
15 | 5.29 | 32.8 | O=C(Nc1ccc(CNC(=O)C2COC2)cc1)OCc1ccc(Cl)cc1 [Compound 310, (4-chlorophenyl)methyl N-{4-[(oxetan-3-ylformamido)methyl]phenyl}carbamate]
16 | 5.19 | 14.9 | O=C(Nc1ccc(CNC(=O)N2CCC(F)(F)CC2)cc1)OCc1ccc(Cl)cc1 [Compound 309, (4-chlorophenyl)methyl N-{4-[(4,4-difluoropiperidine-1-carbonylamino)methyl]phenyl}carbamate]

Row | AC1.4 Human [µM] | EC50 [µM] | Compound
17 | 0.03 | 0.44 | COc1ccc(COC(=O)Nc2ccc(CN3CCC[C@@H]3c3cccnc3)cc2)cc1 [Compound 1, (4-methoxyphenyl)methyl N-(4-{[(2R)-2-(pyridin-3-yl)pyrrolidin-1-yl]methyl}phenyl)carbamate]
18 | 3.21 | 14.4 | O=C(Cc1ccc(NC(=O)OCc2ccc(Cl)cc2)cc1)Nc1cncc(F)c1 [Compound 273, (4-chlorophenyl)methyl N-(4-{[(5-fluoropyridin-3-yl)carbamoyl]methyl}phenyl)carbamate]
19 | 0.05 | 0.31 | O=C(Nc1ccc(CN2CCC[C@@H]2c2cccnc2)cc1)OCc1ccncc1 [Compound 3, pyridin-4-ylmethylN-(4-{[(2R)-2-(pyridin-3-yl)pyrrolidin-1-yl]methyl}phenyl)carbamate]
20 | 0.57 | 52 | O=C(Nc1ccc(CC2C3CCC2CN(C2COC2)C3)cc1)OCc1cnco1 (centres unmarked) [Compound 425, oxazol-5-ylmethyl (4-((3-(oxetan-3-yl)-3-azabicyclo[3.2.1]octan-8-yl)methyl)phenyl)carbamate]
21 | 0.95 | 8.14 | C[C@H](NC(=O)C1CCOCC1)c1ccc(NC(=O)OCc2ccc(Cl)cc2)cc1 [Compound 117, 4-chlorobenzyl (S)-(4-(1-(tetrahydro-2H-pyran-4-carboxamido)ethyl)phenyl)carbamate]
22 | 0.07 | 2.33 | CS(=O)(=O)N1CCC2(CC(c3ccc(NC(=O)OCc4cnco4)cc3F)C2)C1 (single isomer, unassigned) [Compound 360]
23 | 0.68 | 6.21 | O=C(Nc1ccc(CN2CCOCC2=O)cc1)OCc1ccc(Cl)cc1 [Compound 86, (4-chlorophenyl)methyl N-{4-[(3-oxomorpholin-4-yl)methyl]phenyl}carbamate]
24 | 2.65 | 31.7 | Cn1ccc(C(=O)NCc2ccc(NC(=O)OCc3ccc(Cl)cc3)cc2)n1 [Compound 255, (4-chlorophenyl)methyl N-(4-{[(1-methylpyrazol-3-yl)formamido]methyl}phenyl)carbamate]
25 | 0.40 | 1 | CN(Cc1ccc(NC(=O)OCc2ccc(Cl)cc2)cc1)C(=O)c1ccncc1F [Compound 36, (4-chlorophenyl)methyl N-(4-{[1-(3-fluoropyridin-4-yl)-N-methylformamido]methyl}phenyl)carbamate]
26 | 2.39 | 6.35 | COc1nc(C)ccc1C(=O)NCc1ccc(NC(=O)OCc2ccc(Cl)cc2)cc1 [Compound 245, (4-chlorophenyl)methyl N-(4-{[(2-methoxy-6-methylpyridin-3-yl)formamido]methyl}phenyl)carbamate]
27 | 2.11 | 3.47 | Cc1ccc(C(=O)NCc2ccc(NC(=O)OCc3ccc(F)cc3)cc2)cn1 [Compound 227, 4-fluorobenzyl (4-((6-methylnicotinamido)methyl)phenyl)carbamate]
28 | 10.65 | 45.5 | O=C(Cc1ccc(NC(=O)OCc2ccc(Cl)cc2)cc1)NC1COC1 [Compound 339, 4-chlorobenzyl (4-(2-(oxetan-3-ylamino)-2-oxoethyl)phenyl)carbamate]
29 | 3.13 | 44.1 | O=C(Nc1ccc(CCN2CCN(C3COC3)CC2)cc1)OCc1cnco1 [Compound 269, 1,3-oxazol-5-ylmethyl N-(4-{2-[4-(oxetan-3-yl)piperazin-1-yl]ethyl}phenyl)carbamate]
30 | 0.54 | 1.29 | C[C@H](NC(=O)c1c(F)cncc1F)c1ccc(NC(=O)OCc2ccc(Cl)cc2)cc1 [Compound 57, (4-chlorophenyl)methyl N-{4-[(1S)-1-[(3,5-difluoropyridin-4-yl)formamido]ethyl]phenyl}carbamate]
31 | 0.13 | 4.5 | CS(=O)(=O)N1CCC(Cc2ccc(NC(=O)OCc3cnco3)cc2F)CC1 [Compound 448, oxazol-5-ylmethyl (3-fluoro-4-((1-(methylsulfonyl)piperidin-4-yl)methyl)phenyl)carbamate]

Row | Compound | AC1.4 Human [µM] | EC50 [µM]
32 | CC(C)C(=O)N1C2CCC1CC(Cc1ccc(NC(=O)OCc3cnco3)cc1)C2 (centres unmarked) [Compound 409, oxazol-5-ylmethyl (4-((8-isobutyryl-8-azabicyclo[3.2.1]octan-3-yl)methyl)phenyl)carbamate] | 0.20 | 26.8
33 | CN(C)C(=O)N1CCC(Cc2ccc(NC(=O)OCc3cnco3)cc2)CC1 [Compound 30, oxazol-5-ylmethyl (4-((1-(dimethylcarbamoyl)piperidin-4-yl)methyl)phenyl)carbamate] | 0.37 | 25.1
34 | tert-butyl 4-(4-(((oxazol-5-ylmethoxy)carbonyl)amino)phenethyl)piperidine-1-carboxylate [Compound 121] | 0.97 | 14.5
